# Columns and labels:
# [1] = Cynomolgus monkey tolerability, urine analysis (Example 34); conditions: cynomolgus monkeys, 35 mg/kg subcutaneously, day 44
# Protocol: Prior to the study, the monkeys were kept in quarantine during which the animals were observed daily for general health. The monkeys were 2-4 years old and weighed 2-4 kg. Eleven groups of 4 randomly assigned male cynomolgus monkeys each were injected subcutaneously with Ionis oligonucleotide or saline in a clock-wise rotation between four different sites on the back. Following loading doses on days 1, 3, 5 and 7, the monkeys were dosed once per week (on days 14, 21, 28, 35, and 42) with 35 mg/kg of Ionis oligonucleotide.
# Food was removed overnight the day before fresh urine collection, but water was supplied. Fresh urine samples for urinalysis and urine chemistry were collected from all animals using a clean cage pan on wet ice (first in the morning) on day 44. Urinalysis/Urine Chemistry parameters creatinine (UCRE), microprotein (UTP), urine microalbumin (UALB), and protein/creatinine (P/C) ratio were measured using a Toshiba 120FR automated chemistry analyzer (Toshiba Co., Japan).
# [2] = Tolerability in CD-1 mice, body and organ weights (Example 19); type: in vivo; conditions: male CD-1 mice, 50 mg/kg s.c. twice a week for four weeks (8 treatments), end of study (day 26)
# Protocol: Groups of four male CD-1 mice at 4-6 weeks of age (obtained from Charles River) were injected subcutaneously twice a week for four weeks (for a total of 8 treatments) with 50 mg/kg of modified oligonucleotides. One group of male CD-1 mice was injected with PBS. Mice were euthanized on day 26 post start of treatment (24 hrs following the final administration).
# Body weights of CD-1 mice were measured at the end of the study, and the average body weight for each group is presented in the table below. Modified oligonucleotides that caused any changes in organ weights outside the expected range for modified oligonucleotides were excluded from further studies.
Substance,UALB [1] [mg/dL],UCRE [1] [mg/dL],UTP [1] [mg/dL],Kidney weight [2] [g],Liver weight [2] [g],Spleen weight [2] [g],body weight [2] [g]
"1197270 (TTAAAGTGTATGTCAG; cEt gapmer with 2'-OMe nucleoside, phosphorothioate, further chemistry not given here) [compound 1197270]",1.3,56,18,–,–,–,–
"1198439 (AGTGTATGTCAGAAGA; sugar, 5-methylcytosine, phosphorothioate modifications, further chemistry not given here) [compound 1198439]",0.1,68,15,0.51,2.03,0.25,36
"1198605 (GTAATATTGCAATCTG; modified gapmer, further chemistry not given here) [compound 1198605]",0.4,69,12,–,–,–,–
"1198728 (TATTAGAGTATGTGGC; modified gapmer, further chemistry not given here) [compound 1198728]",0.3,70,16,–,–,–,–
"1198831 (CACTTTTACATTAGGA; chemically modified gapmer, further chemistry not given here) [compound 1198831]",0.1,46,13,–,–,–,–
"958499 (ATTAGAGTATGTGGCA; 3-10-3 cEt gapmer, further chemistry not given here) [compound 958499]",0.1,60,16,–,–,–,–
"1198623 (CTAAGTAAGGTTTCCC; modified gapmer, further chemistry not given here) [compound 1198623]",0.2,44,10,–,–,–,–
"1198872 (TGTATGTCAGAAGAGT; chemically modified gapmer, further chemistry not given here) [compound 1198872]",0.3,111,14,0.40,1.84,0.16,34
"1076453 (GTAATATTGCAATCTG; 3-10-3 cEt gapmer, further chemistry not given here) [compound 1076453]",0.1,50,14,–,–,–,–

# Reference: patent US11214803B2, “Modulators of YAP1 expression” (Ionis Pharmaceuticals, Inc., priority 2019, dated 2022)
